The values that follow come from PubChem BioAssay AID256 (DTP/NCI, 2004).

The subject of the assay is CD2F1 mice, L1210 leukemia ip, survival T/C. The experiment in a line: NCI In Vivo Anticancer Drug Screen. Data for tumor model L1210 Leukemia (intraperitoneal) in CD2F1 (CDF1) mice. Conditions: endpoint: mean survival time, higher = longer survival. In a few lines: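 Vehicle-treated tumor-bearing mice served as controls (C) for compound-treated mice (T). Reported figure is T divided by C.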

Setting [1] is: dose: 100.0 mg/kg/injection, schedule: Q04DX003 (ip), vehicle: saline.
Setting [2] is: dose: 200.0 mg/kg/injection, schedule: Q04DX003 (ip), vehicle: saline.
[3] abbreviates: dose: 25.0 mg/kg/injection, schedule: Q01DX009 (ip), vehicle: saline with Tween-80.
Setting [4] is: dose: 100.0 mg/kg/injection, schedule: Q01DX009 (ip), vehicle: saline with Tween-80.
The mark [5] stands for this setting: dose: 100.0 mg/kg/injection, schedule: Q04DX003 (ip), vehicle: saline with Tween-80.
Where [6] appears, read: dose: 200.0 mg/kg/injection, schedule: Q04DX003 (ip), vehicle: saline with Tween-80.
The mark [7] stands for this setting: dose: 100.0 mg/kg/injection, schedule: Q04DX002 (ip), vehicle: saline with Tween-80.
The mark [8] stands for this setting: dose: 200.0 mg/kg/injection, schedule: Q04DX002 (ip), vehicle: saline with Tween-80.
Setting [9] is: dose: 400.0 mg/kg/injection, schedule: Q04DX002 (ip), vehicle: saline with Tween-80.
Where [10] appears, read: dose: 50.0 mg/kg/injection, schedule: Q04DX002 (ip), vehicle: saline with Tween-80.

“And” between values parts separate entries of the source, which are not always exact repeats. Identical values can stand only once. Inconclusive results and toxic doses are left out.

Regarding `COc1cc2c(cc1OC)C1CCN3C(=O)CCC3[N+]1(C)CC2` (stereo unspecified), the T/C is 93 % of control (dose: 50.0 mg/kg/injection, schedule: Q01DX009 (ip), vehicle: saline); 98 % of control (dose: 100.0 mg/kg/injection, schedule: Q01DX009 (ip), vehicle: saline); 98 % of control under setting [1]; 96 % of control under setting [2].
In the case of `NC(=S)N/N=C/c1ccc(OC(F)(F)F)cn1`, the T/C was 104 % of control (dose: 1.56 mg/kg/injection, schedule: Q01DX009 (ip), vehicle: other); 100 % of control (dose: 3.13 mg/kg/injection, schedule: Q01DX009 (ip), vehicle: other); 108 % of control (dose: 6.25 mg/kg/injection, schedule: Q01DX009 (ip), vehicle: other); 118 % of control (dose: 12.5 mg/kg/injection, schedule: Q01DX009 (ip), vehicle: other); 89 % of control (dose: 25.0 mg/kg/injection, schedule: Q04DX002 (ip), vehicle: other); 104 % of control (dose: 50.0 mg/kg/injection, schedule: Q04DX002 (ip), vehicle: other). Moreover, the T/C (dose: 100.0 mg/kg/injection, schedule: Q04DX002 (ip), vehicle: other) is 115 % of control.
On to `CC(C)=CCNc1ncnc2c1ncn2C1OC(COP(=O)(O)O)C(O)C1O` (stereo unspecified), for which the T/C was 103 % of control (dose: 25.0 mg/kg/injection, schedule: Q01DX005 (ip), vehicle: water); 104 % of control (dose: 50.0 mg/kg/injection, schedule: Q01DX005 (ip), vehicle: water); 103 % of control (dose: 100.0 mg/kg/injection, schedule: Q01DX005 (ip), vehicle: water); 114 % of control (dose: 200.0 mg/kg/injection, schedule: Q01DX005 (ip), vehicle: water).
Regarding `N[C@@H]1CCCC[C@H]1N.O=C([O-])C(=O)[O-].[Pt+4]`, the T/C (dose: 0.78 mg/kg/injection, schedule: Q04DX003 (ip), vehicle: saline) was 120 % of control.
As to `CN(N)c1cccc2c1CCCC2`, the T/C is, setting by setting: under setting [3], 106 % of control; (dose: 25.0 mg/kg/injection, schedule: Q04DX003 (ip), vehicle: saline with Tween-80) 97 % of control; (dose: 50.0 mg/kg/injection, schedule: Q01DX009 (ip), vehicle: saline with Tween-80) 103 % of control; (dose: 50.0 mg/kg/injection, schedule: Q04DX003 (ip), vehicle: saline with Tween-80) 102 % of control; under setting [4], 105 % of control; under setting [5], 93 % of control and 102 % of control.
For `COc1ccc(OC)c(NC(=O)NNC(=O)c2ccc(Cl)cc2)c1`, the T/C under setting [4] is 90 % of control.
In the case of `c1ccc(COCc2ccccc2Cn2ccnc2)cc1`, the T/C runs as follows: (dose: 10.0 mg/kg/injection, schedule: Q04DX003 (ip), vehicle: saline) 120 % of control; (dose: 20.0 mg/kg/injection, schedule: Q04DX003 (ip), vehicle: saline) 101 % of control; (dose: 40.0 mg/kg/injection, schedule: Q04DX003 (ip), vehicle: saline) 95 % of control.
Regarding `O=c1c([N+](=O)[O-])cn(O)cc1[N+](=O)[O-]`, the T/C (dose: 100.0 mg/kg/injection, schedule: Q01DX001 (ip), vehicle: alkali diluted with saline) is 100 % of control; the T/C (dose: 200.0 mg/kg/injection, schedule: Q01DX001 (ip), vehicle: alkali diluted with saline) is 94 % of control; the T/C (dose: 400.0 mg/kg/injection, schedule: Q01DX001 (ip), vehicle: alkali diluted with saline) was 100 % of control.
In the case of `O=C1OC2C(I)C3CC1C2C3` (stereo unspecified), the T/C is, setting by setting: under setting [5], 96 % of control; under setting [6], 96 % of control.
For `COc1cccc2c1C(=O)c1c(O)c3c(c(O)c1C2=O)C[C@@](O)(/C(CO)=N/NC(=O)c1ccc(Cl)c(Cl)c1)C[C@@H]3OC1CC(N)C(O)C(C)O1` (stereo partly specified), the T/C reads like this: (dose: 1.0 mg/kg/injection, schedule: Q01DX009 (ip), vehicle: water) 86 % of control; (dose: 2.0 mg/kg/injection, schedule: Q01DX009 (ip), vehicle: water) 116 % of control and 89 % of control; (dose: 4.0 mg/kg/injection, schedule: Q01DX009 (ip), vehicle: water) 92 % of control; (dose: 8.0 mg/kg/injection, schedule: Q01DX009 (ip), vehicle: water) 92 % of control; (dose: 16.0 mg/kg/injection, schedule: Q01DX009 (ip), vehicle: water) 252 % of control and 97 % of control; (dose: 32.0 mg/kg/injection, schedule: Q01DX009 (ip), vehicle: water) 113 % of control and 111 % of control.
Consider `O=c1[nH]c(=O)n(C2CC(O)C(CO)O2)cc1Br` (stereo unspecified), for which the T/C runs as follows: (dose: 25.0 mg/kg/injection, schedule: Q01DX009 (ip), vehicle: Klucel (hydroxypropylcellulose) (HPC)) 103 % of control; (dose: 50.0 mg/kg/injection, schedule: Q01DX009 (ip), vehicle: Klucel (hydroxypropylcellulose) (HPC)) 123 % of control; (dose: 100.0 mg/kg/injection, schedule: Q01DX009 (ip), vehicle: Klucel (hydroxypropylcellulose) (HPC)) 120 % of control; (dose: 200.0 mg/kg/injection, schedule: Q01DX009 (ip), vehicle: Klucel (hydroxypropylcellulose) (HPC)) 112 % of control; (dose: 400.0 mg/kg/injection, schedule: Q01DX009 (ip), vehicle: Klucel (hydroxypropylcellulose) (HPC)) 112 % of control; (dose: 800.0 mg/kg/injection, schedule: Q01DX009 (ip), vehicle: Klucel (hydroxypropylcellulose) (HPC)) 115 % of control.
Take `CS(=O)(=O)OCC1NC(=O)C(COS(C)(=O)=O)NC1=O` (stereo unspecified): the T/C was 103 % of control (dose: 3.13 mg/kg/injection, schedule: Q01DX009 (ip), vehicle: water); 101 % of control (dose: 6.25 mg/kg/injection, schedule: Q01DX009 (ip), vehicle: water); 105 % of control (dose: 12.5 mg/kg/injection, schedule: Q01DX009 (ip), vehicle: water); 106 % of control (dose: 25.0 mg/kg/injection, schedule: Q01DX009 (ip), vehicle: water); 101 % of control (dose: 50.0 mg/kg/injection, schedule: Q01DX009 (ip), vehicle: water); 100 % of control (dose: 100.0 mg/kg/injection, schedule: Q01DX009 (ip), vehicle: water).
Take `CC(C)CCCC(C)CO[P+](=O)OCC(C)CCCC(C)C` (stereo unspecified): the T/C under setting [7] is 103 % of control, the T/C under setting [8] is 96 % of control and the T/C under setting [9] is 88 % of control.
As to `CCOC(=O)CCC(C(=O)OCC)N1C(=O)c2ccccc2C1=O` (stereo unspecified), the T/C (dose: 25.0 mg/kg/injection, schedule: Q04DX002 (ip), vehicle: saline with Tween-80) is 100 % of control; the T/C under setting [10] is 103 % of control; the T/C under setting [7] is 100 % of control.
Turning to `NP(=O)(Oc1ccccc1)Oc1ccccc1`, the T/C by setting is: under setting [3], 96 % of control; under setting [5], 90 % of control.
On to `Nc1nc2c(ncn2-c2ccc(Cl)c(Cl)c2)c(=O)[nH]1`, for which the T/C reads like this: under setting [10], 98 % of control; under setting [7], 93 % of control and 97 % of control; under setting [8], 97 % of control; under setting [9], 93 % of control.
On to `C[CH2][Sn]([I])([CH2]C)[CH2]C`, for which, for the setting “dose: 6.25 mg/kg/injection, schedule: Q01DX009 (ip), vehicle: saline with Tween-80”, the T/C is 89 % of control.
Regarding `CN(C)C(=S)SCC(=O)O`, the T/C was 95 % of control under setting [1]; 96 % of control under setting [2]; 102 % of control (dose: 400.0 mg/kg/injection, schedule: Q04DX003 (ip), vehicle: saline).
Turning to `CCC(=O)Nc1ccc(C)c(Cl)c1`, the T/C was 95 % of control under setting [4]; 96 % of control under setting [5]; 95 % of control (dose: 200.0 mg/kg/injection, schedule: Q01DX009 (ip), vehicle: saline with Tween-80); 95 % of control under setting [6]; 104 % of control (dose: 400.0 mg/kg/injection, schedule: Q01DX009 (ip), vehicle: saline with Tween-80); 97 % of control (dose: 400.0 mg/kg/injection, schedule: Q04DX003 (ip), vehicle: saline with Tween-80).
